According to US4740233A, “Substituted 1,2,4-triazolo[1,5-a]-pyrimidine-2-sulfonamides and compositions and methods of controlling undesired vegetation and suppressing the nitrification of ammonium nitrogen in soil” (The Dow Chemical Company, priority 1986, dated 1988):

System: nitrification of ammonium nitrogen
Experiment: Suppression of nitrification of ammonium nitrogen in soil
Conditions: 27° C.
Description: A sufficient volume of water was added to 20 g of the soil in a wide-mouth, screw-cap, 4-ounce, glass bottle, such that the moisture content of the mixture was made equal to the 1/3 bar tension value for that soil. The mixture was thoroughly mixed before sealing. […] Acetone slows the rate of soil nitrification and its concentration must be carefully controlled. Single samples of each test chemical were incubated for two weeks at 27° C.
The experiment comprised the following types of samples:
The soil samples were analyzed as follows: Sufficient ammonium sulfate extracting solution was added to the sample, such that the total volume of added water was 50 ml (included water added during sample preparation). The capped mixture was shaken 10 minutes to solubilize nitrate and the soil particulates were allowed to settle. The nitrate concentration in the water phase was determined with a nitrate-specific ion electrode such as Orion Model 93-07.
The non-nitrate nitrogen remaining (% NH4 -N remaining) in the soil after two weeks (performance value) was calculated as follows: [formula]

Cc1ccn2nc(S(=O)(=O)Nc3c(Cl)ccc(C)c3Cl)nc2n1 [Compound 147]
% NH4-N Remaining After 2 Weeks Incubation (0.06 ppm): 41% | % NH4-N Remaining After 2 Weeks Incubation (0.25 ppm): 55% | % NH4-N Remaining After 2 Weeks Incubation (1 ppm): 72% | % NH4-N Remaining After 2 Weeks Incubation (4 ppm): 87%

COC(=O)c1sccc1NS(=O)(=O)c1nc2nc(C)cc(C)n2n1 [Compound 257]
% NH4-N Remaining After 2 Weeks Incubation (0.01 ppm): 0% | % NH4-N Remaining After 2 Weeks Incubation (0.1 ppm): 0% | % NH4-N Remaining After 2 Weeks Incubation (1 ppm): 0% | % NH4-N Remaining After 2 Weeks Incubation (10 ppm): 58%

CCCSc1ccccc1NS(=O)(=O)c1nc2nc(C)cc(C)n2n1 [Compound 67]
% NH4-N Remaining After 2 Weeks Incubation (0.06 ppm): 0% | % NH4-N Remaining After 2 Weeks Incubation (0.25 ppm): 0% | % NH4-N Remaining After 2 Weeks Incubation (1 ppm): 41% | % NH4-N Remaining After 2 Weeks Incubation (4 ppm): 69%

Cc1cc(C)n2nc(S(=O)(=O)Nc3nccs3)nc2n1 [Compound 256]
% NH4-N Remaining After 2 Weeks Incubation (0.01 ppm): 20% | % NH4-N Remaining After 2 Weeks Incubation (0.1 ppm): 13% | % NH4-N Remaining After 2 Weeks Incubation (1 ppm): 10% | % NH4-N Remaining After 2 Weeks Incubation (10 ppm): 48%

Cc1cc(C)n2nc(S(=O)(=O)Nc3ccccc3Oc3ncc(C(F)(F)F)cc3Cl)nc2n1 [Compound 99]
% NH4-N Remaining After 2 Weeks Incubation (0.06 ppm): 0% | % NH4-N Remaining After 2 Weeks Incubation (1 ppm): 0% | % NH4-N Remaining After 2 Weeks Incubation (4 ppm): 57%

Cc1cc(C)n2nc(S(=O)(=O)Nc3ccccc3C(=O)OC(C)C)nc2n1 [Compound 36]
% NH4-N Remaining After 2 Weeks Incubation (0.01 ppm): 0% | % NH4-N Remaining After 2 Weeks Incubation (0.1 ppm): 0% | % NH4-N Remaining After 2 Weeks Incubation (1 ppm): 17% | % NH4-N Remaining After 2 Weeks Incubation (10 ppm): 60%

CSc1ccccc1NS(=O)(=O)c1nc2ncc(Cl)cn2n1 [Compound 115]
% NH4-N Remaining After 2 Weeks Incubation (0.06 ppm): 37% | % NH4-N Remaining After 2 Weeks Incubation (0.25 ppm): 41% | % NH4-N Remaining After 2 Weeks Incubation (1 ppm): 64% | % NH4-N Remaining After 2 Weeks Incubation (4 ppm): 86%

Cc1cc(C)n2nc(S(=O)(=O)Nc3ccc(F)cc3F)nc2n1 [Compound 29]
% NH4-N Remaining After 2 Weeks Incubation (0.01 ppm): 0% | % NH4-N Remaining After 2 Weeks Incubation (0.1 ppm): 0% | % NH4-N Remaining After 2 Weeks Incubation (1 ppm): 1% | % NH4-N Remaining After 2 Weeks Incubation (10 ppm): 51%

Cc1cc(C)n2nc(S(=O)(=O)Nc3cc(Cl)ccc3Cl)nc2n1 [Compound 21]
% NH4-N Remaining After 2 Weeks Incubation (0.01 ppm): 8% | % NH4-N Remaining After 2 Weeks Incubation (0.1 ppm): 42% | % NH4-N Remaining After 2 Weeks Incubation (1 ppm): 68% | % NH4-N Remaining After 2 Weeks Incubation (10 ppm): 86%

Cc1cc(C)n2nc(S(=O)(=O)Nc3ccccc3O)nc2n1 [Compound 3]
% NH4-N Remaining After 2 Weeks Incubation (0.01 ppm): 0% | % NH4-N Remaining After 2 Weeks Incubation (0.1 ppm): 0% | % NH4-N Remaining After 2 Weeks Incubation (1 ppm): 0% | % NH4-N Remaining After 2 Weeks Incubation (10 ppm): 25%

CCOC(=O)CN(c1c(Cl)cccc1Cl)S(=O)(=O)c1nc2nc(C)cc(C)n2n1 [Compound 264]
% NH4-N Remaining After 2 Weeks Incubation (0.06 ppm): 0% | % NH4-N Remaining After 2 Weeks Incubation (0.25 ppm): 1% | % NH4-N Remaining After 2 Weeks Incubation (1 ppm): 26% | % NH4-N Remaining After 2 Weeks Incubation (4 ppm): 37%

Cc1cc(C)n2nc(S(=O)(=O)Nc3ccccc3C(=O)N(C)C)nc2n1 [Compound 42]
% NH4-N Remaining After 2 Weeks Incubation (0.01 ppm): 0% | % NH4-N Remaining After 2 Weeks Incubation (0.1 ppm): 0% | % NH4-N Remaining After 2 Weeks Incubation (1 ppm): 8% | % NH4-N Remaining After 2 Weeks Incubation (10 ppm): 68%

COC(=O)c1ccc(C(=O)OC)c(NS(=O)(=O)c2nc3nc(C)cc(C)n3n2)c1 [Compound 102]
% NH4-N Remaining After 2 Weeks Incubation (0.6 ppm): 0% | % NH4-N Remaining After 2 Weeks Incubation (1.25 ppm): 0% | % NH4-N Remaining After 2 Weeks Incubation (2.5 ppm): 0% | % NH4-N Remaining After 2 Weeks Incubation (5 ppm): 24% | % NH4-N Remaining After 2 Weeks Incubation (10 ppm): 44%

Cc1cc(C)n2nc(S(=O)(=O)Nc3c(C)cccc3C(=O)OC(C)C)nc2n1 [Compound 64]
% NH4-N Remaining After 2 Weeks Incubation (0.06 ppm): 19% | % NH4-N Remaining After 2 Weeks Incubation (0.25 ppm): 43% | % NH4-N Remaining After 2 Weeks Incubation (1 ppm): 62% | % NH4-N Remaining After 2 Weeks Incubation (4 ppm): 81%

Cc1cc(C)n2nc(S(=O)(=O)Nc3ccccc3S(=O)(=O)C(F)(F)F)nc2n1 [Compound 57]
% NH4-N Remaining After 2 Weeks Incubation (0.06 ppm): 2% | % NH4-N Remaining After 2 Weeks Incubation (0.25 ppm): 17% | % NH4-N Remaining After 2 Weeks Incubation (1 ppm): 45% | % NH4-N Remaining After 2 Weeks Incubation (4 ppm): 69%

CSc1ccccc1NS(=O)(=O)c1nc2nc(C)ccn2n1 [Compound 142]
% NH4-N Remaining After 2 Weeks Incubation (0.01 ppm): 0% | % NH4-N Remaining After 2 Weeks Incubation (0.1 ppm): 5% | % NH4-N Remaining After 2 Weeks Incubation (1 ppm): 62% | % NH4-N Remaining After 2 Weeks Incubation (10 ppm): 98%

Cc1cc(C)n2nc(S(=O)(=O)Nc3c(Cl)cccc3COCc3ccccc3)nc2n1 [Compound 92]
% NH4-N Remaining After 2 Weeks Incubation (0.06 ppm): 0% | % NH4-N Remaining After 2 Weeks Incubation (0.25 ppm): 4% | % NH4-N Remaining After 2 Weeks Incubation (1 ppm): 0% | % NH4-N Remaining After 2 Weeks Incubation (4 ppm): 25%

Cc1cc(C)n2nc(S(=O)(=O)Nc3ccccc3Oc3ccc(C(F)(F)F)cc3Cl)nc2n1 [Compound 97]
% NH4-N Remaining After 2 Weeks Incubation (0.06 ppm): 67% | % NH4-N Remaining After 2 Weeks Incubation (0.25 ppm): 0% | % NH4-N Remaining After 2 Weeks Incubation (1 ppm): 3% | % NH4-N Remaining After 2 Weeks Incubation (4 ppm): 19%

CNc1ccccc1NS(=O)(=O)c1nc2nc(C)cc(C)n2n1 [Compound 5]
% NH4-N Remaining After 2 Weeks Incubation (0.01 ppm): 0% | % NH4-N Remaining After 2 Weeks Incubation (0.1 ppm): 0% | % NH4-N Remaining After 2 Weeks Incubation (1 ppm): 1% | % NH4-N Remaining After 2 Weeks Incubation (10 ppm): 28%

Cc1nc2nc(S(=O)(=O)Nc3ccccc3C(=O)OC(C)C)nn2c2c1CCC2 [Compound 110]
% NH4-N Remaining After 2 Weeks Incubation (0.01 ppm): 0% | % NH4-N Remaining After 2 Weeks Incubation (0.1 ppm): 0% | % NH4-N Remaining After 2 Weeks Incubation (1 ppm): 13% | % NH4-N Remaining After 2 Weeks Incubation (10 ppm): 59%

Cc1cc(C)n2nc(S(=O)(=O)Nc3c(C)cccc3C(=O)Oc3ccccc3)nc2n1 [Compound 75]
% NH4-N Remaining After 2 Weeks Incubation (0.06 ppm): 25% | % NH4-N Remaining After 2 Weeks Incubation (0.25 ppm): 61% | % NH4-N Remaining After 2 Weeks Incubation (1 ppm): 67% | % NH4-N Remaining After 2 Weeks Incubation (4 ppm): 86%

Cc1cc(C)n2nc(S(=O)(=O)Nc3ccccc3SC(F)(F)C(F)F)nc2n1 [Compound 59]
% NH4-N Remaining After 2 Weeks Incubation (0.06 ppm): 11% | % NH4-N Remaining After 2 Weeks Incubation (0.25 ppm): 33% | % NH4-N Remaining After 2 Weeks Incubation (1 ppm): 51% | % NH4-N Remaining After 2 Weeks Incubation (4 ppm): 66%

CSc1ccccc1NS(=O)(=O)c1nc2ncccn2n1 [Compound 135]
% NH4-N Remaining After 2 Weeks Incubation (0.01 ppm): 0% | % NH4-N Remaining After 2 Weeks Incubation (0.1 ppm): 0% | % NH4-N Remaining After 2 Weeks Incubation (1 ppm): 12% | % NH4-N Remaining After 2 Weeks Incubation (10 ppm): 100%

Cc1cc(C)n2nc(S(=O)(=O)Nc3ccccc3C(=O)O)nc2n1 [Compound 11]
% NH4-N Remaining After 2 Weeks Incubation (0.01 ppm): 0% | % NH4-N Remaining After 2 Weeks Incubation (0.1 ppm): 0% | % NH4-N Remaining After 2 Weeks Incubation (1 ppm): 0% | % NH4-N Remaining After 2 Weeks Incubation (10 ppm): 5%

Cc1cc(C)n2nc(S(=O)(=O)Nc3c(C)cccc3C(=O)O)nc2n1 [Compound 103]
% NH4-N Remaining After 2 Weeks Incubation (0.06 ppm): 0% | % NH4-N Remaining After 2 Weeks Incubation (0.25 ppm): 15% | % NH4-N Remaining After 2 Weeks Incubation (1 ppm): 43% | % NH4-N Remaining After 2 Weeks Incubation (4 ppm): 53%

CSc1cccc(C)c1NS(=O)(=O)c1nc2nc(C)cc(C)n2n1 [Compound 70]
% NH4-N Remaining After 2 Weeks Incubation (0.06 ppm): 0% | % NH4-N Remaining After 2 Weeks Incubation (0.25 ppm): 29% | % NH4-N Remaining After 2 Weeks Incubation (1 ppm): 69% | % NH4-N Remaining After 2 Weeks Incubation (4 ppm): 87%

Cc1cc(C)n2nc(S(=O)(=O)Nc3nc4c(Cl)cccc4s3)nc2n1 [Compound 258]
% NH4-N Remaining After 2 Weeks Incubation (0.01 ppm): 0% | % NH4-N Remaining After 2 Weeks Incubation (0.1 ppm): 0% | % NH4-N Remaining After 2 Weeks Incubation (1 ppm): 23% | % NH4-N Remaining After 2 Weeks Incubation (10 ppm): 78%

O=[N+]([O-])c1ccc(-c2cnc3nc(S(=O)(=O)Nc4c(Cl)cccc4Cl)nn3c2)cc1 [Compound 226]
% NH4-N Remaining After 2 Weeks Incubation (0.06 ppm): 2% | % NH4-N Remaining After 2 Weeks Incubation (0.25 ppm): 17% | % NH4-N Remaining After 2 Weeks Incubation (1 ppm): 42% | % NH4-N Remaining After 2 Weeks Incubation (4 ppm): 69%

COC(=O)c1ccccc1NS(=O)(=O)c1nc2nc(C)c3c(n2n1)CCC3 [Compound 109]
% NH4-N Remaining After 2 Weeks Incubation (0.01 ppm): 0% | % NH4-N Remaining After 2 Weeks Incubation (0.1 ppm): 0% | % NH4-N Remaining After 2 Weeks Incubation (1 ppm): 41% | % NH4-N Remaining After 2 Weeks Incubation (10 ppm): 92%

Cc1cc(C)n2nc(S(=O)(=O)Nc3ccc(Cl)cc3C(=O)N(C)C)nc2n1 [Compound 43]
% NH4-N Remaining After 2 Weeks Incubation (0.01 ppm): 0% | % NH4-N Remaining After 2 Weeks Incubation (0.1 ppm): 0% | % NH4-N Remaining After 2 Weeks Incubation (1 ppm): 44% | % NH4-N Remaining After 2 Weeks Incubation (10 ppm): 91%

COC(=O)c1cccc(F)c1NS(=O)(=O)c1nc2nc(C)ccn2n1 [Compound 159]
% NH4-N Remaining After 2 Weeks Incubation (0.06 ppm): 49% | % NH4-N Remaining After 2 Weeks Incubation (0.25 ppm): 56% | % NH4-N Remaining After 2 Weeks Incubation (1 ppm): 80% | % NH4-N Remaining After 2 Weeks Incubation (4 ppm): 94%

COC(=O)c1cccc(C)c1NS(=O)(=O)c1nc2nc(C)ccn2n1 [Compound 146]
% NH4-N Remaining After 2 Weeks Incubation (0.06 ppm): 19% | % NH4-N Remaining After 2 Weeks Incubation (0.25 ppm): 48% | % NH4-N Remaining After 2 Weeks Incubation (1 ppm): 60% | % NH4-N Remaining After 2 Weeks Incubation (4 ppm): 79%

Cc1cc(C)n2nc(S(=O)(=O)Nc3c(C)cccc3C(=O)N(C)C)nc2n1 [Compound 62]
% NH4-N Remaining After 2 Weeks Incubation (0.6 ppm): 0% | % NH4-N Remaining After 2 Weeks Incubation (1.25 ppm): 13% | % NH4-N Remaining After 2 Weeks Incubation (5 ppm): 55% | % NH4-N Remaining After 2 Weeks Incubation (10 ppm): 75%

O=S(=O)(Nc1c(F)cccc1Cl)c1nc2ncc(Cl)cn2n1 [Compound 116]
% NH4-N Remaining After 2 Weeks Incubation (0.06 ppm): 27% | % NH4-N Remaining After 2 Weeks Incubation (0.25 ppm): 50% | % NH4-N Remaining After 2 Weeks Incubation (1 ppm): 57% | % NH4-N Remaining After 2 Weeks Incubation (4 ppm): 81%

Cc1cc(C)n2nc(S(=O)(=O)Nc3cccnc3Cl)nc2n1 [Compound 255]
% NH4-N Remaining After 2 Weeks Incubation (0.01 ppm): 0% | % NH4-N Remaining After 2 Weeks Incubation (0.1 ppm): 0% | % NH4-N Remaining After 2 Weeks Incubation (1 ppm): 37% | % NH4-N Remaining After 2 Weeks Incubation (10 ppm): 72%
